Experiment: Acute Toxic characters (Mouse LD50)
Type: in vivo
Settings: HCl salt; for Mouse LD50: female; for LD50: mouse, in vivo, male
[1] = ip, Intraperitoneal Administration
[2] = sc, Subcutaneous Administration

C[C@@H](O)[C@H](NC(=O)[C@@H](CCCN)NC(=O)[C@H](CC(O)CNC(=N)N)NC(=O)[C@@H](N)CCCNC(=N)N)C(=O)N[C@H](CCCN)C(=O)N[C@@H](CC(O)CNC(=N)N)C(=O)N[C@H](Cc1ccc(O)cc1)C(=O)O (single isomer, unassigned) [L-ARG--L-(ARG(OH)--D-ORN--L-THR--D-ORN--L-ARG(OH)--D-TYR]
Mouse LD50 (Intraperitoneal Administration): 43.2 to 57.2 mg/kg | Mouse LD50 (Intravenous Administration): 24.1 to 34.8 mg/kg | Mouse LD50 (Oral Administration): 2400 to 3000 mg/kg | Mouse LD50 (Subcutaneous Administration): 104 to 125 mg/kg | LD50 [1]: 43.2 to 57.2 mg/kg | LD50 [2]: 86.8 to 104 mg/kg | LD50 (Intravenous Administration): 24.1 to 34.8 mg/kg | LD50 (Oral Administration): 2400 to 3000 mg/kg

C[C@@H](O)[C@H](NC(=O)[C@@H](CCCN)NC(=O)[C@H](CC(O)CNC(=N)N)NC(=O)[C@@H](N)CCCNC(=N)N)C(=O)N[C@H](CCCN)C(=O)N[C@@H](CCCCN)C(=O)N[C@H](Cc1ccc(O)cc1)C(=O)O (single isomer, unassigned) [L-ARG--L-ARG(OH)--D-ORN--L-THR--D-ORN--L-Lys--D-TYR]
Mouse LD50 (Intraperitoneal Administration): above 300 mg/kg | Mouse LD50 (Intravenous Administration): 144 to 1728 mg/kg | Mouse LD50 (Oral Administration): above 6000 mg/kg | Mouse LD50 (Subcutaneous Administration): ≥ 320 mg/kg | LD50 [1]: > 300 mg/kg | LD50 [2]: ≥ 320 mg/kg | LD50 (Intravenous Administration): 120 to 144 mg/kg | LD50 (Oral Administration): > 6000 mg/kg

From patent publication US4221705A, “Novel peptide type antibiotic and the process for the production thereof” (priority 1977, dated 1980)
